Test results reported in patent US20090298780A1, “Methods To Produce Lung Surfactant Formulations Via Lyophilization And Formulations And Uses Thereof” (priority 2004, published 2009).
Values after ≈ are worked out from the molar mass of the structure shown.

Tests used:
[1] = Achievable dissolution concentrations of individual components in 60% TBA cosolvent without NaCl; format: physicochemical; settings: 60% TBA without NaCl; for Measured Concentration (mg/ml) AVG: average of 3, room temperature; for Measured Concentration (mg/ml) 1: replicate 1; for Measured Concentration (mg/ml) 2: replicate 2; for Measured Concentration (mg/ml) 3: replicate 3
[2] = Individual component solubility in t-butanol/water solutions (HPLC); settings: about 37° C.
Method: Aliquots of each lipid and peptide were accurately weighed into 1.5 ml Eppendorf tubes. […] To each tube 0.2 ml of solvent was added. Each tube was vortexed and then bath sonicated for several minutes to facilitate dissolution. Samples were then placed in a 37° C. bath for approximately 30 minutes and then removed and placed on the counter for up to 30 minutes. […] Three independent Eppendorf tubes were prepared and tested for each solute-solvent combination. Visual observations were made of each tube as to whether they appeared a) clear (i.e., apparently fully soluble), b) to contain non-dissolved material, or c) indeterminate. Small aliquots of each tube were then taken, diluted in the HPLC running buffer, and analyzed by HPLC. HPLC was performed using a CIS column by established methods.

CCCCCCCCCCCCCCCC(=O)OC[C@H](COP(=O)([O-])OCC[N+](C)(C)C)OC(=O)CCCCCCCCCCCCCCC [DPPC, dipalmitoyl phosphatidylcholine]
Measured Concentration (mg/ml) AVG [1]: 35.0 mg/mL
Measured Concentration (mg/ml) 1 [1]: 34.8 mg/mL
Measured Concentration (mg/ml) 2 [1]: 35.0 mg/mL
Measured Concentration (mg/ml) 3 [1]: 35.2 mg/mL

CCCCCCCC/C=C\CCCCCCCC(=O)O[C@H](COC(=O)CCCCCCCCCCCCCCC)COP(=O)(O)OCC(O)CO (stereo partly drawn) [POPG, palmitoyloleoyl phosphatidylglycerol]
Measured Concentration (mg/ml) AVG [1]: 290.9 mg/mL
Measured Concentration (mg/ml) 1 [1]: 298.4 mg/mL
Measured Concentration (mg/ml) 2 [1]: 283.7 mg/mL
Measured Concentration (mg/ml) 3 [1]: 290.6 mg/mL
Solubility (mg/ml) 50% ([2]; 50% t-butanol/water): >47 mg/mL
Solubility (mg/ml) 80% ([2]; 80% t-butanol/water): >119 mg/mL
Solubility (mg/ml) 90% ([2]; 90% t-butanol/water): >160 mg/mL
Solubility (mg/ml) 95% ([2]; 95% t-butanol/water): 34 mg/mL (≈ 45.4 mM)
Solubility (mg/ml) 97.5% ([2]; 97.5% t-butanol/water): 20 mg/mL (≈ 26.7 mM)
Solubility (mg/ml) 99% ([2]; 99% t-butanol/water): <5 mg/mL
Solubility (mg/ml) 100% ([2]; 100% t-butanol): <5 mg/mL
